# Laboratory results from patent publication US11566007B2, “Ras inhibitors” (Revolution Medicines, Inc., priority 2019, dated 2023).
# Like-named read-outs stand apart in the source and are kept apart here.
# Legend:
# [1] = system: NCI-H358 cells (K-Ras G12C); test: Potency assay: pERK in NCI-H358 cells; type: cell-based, human; details: Homo sapiens, NCI-H358; H358 KRAS G12C; read-out: pERK EC50
# Summary of the method: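 pERK decrease read by AlphaLISA SureFire p-ERK1/2 or In-Cell Western after 4 h compound exposure at 37 °C, 5% CO2.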
# NCI-H358 (K-Ras G12C) = test: CellTiter-Glo cell viability assay, NCI-H358; type: cell-based, human; details: Homo sapiens, NCI-H358, 120 h, class symbols
# Summary of the method: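 Cells seeded, compound added directly, 5-day exposure. Plates to RT ~30 min, CellTiter-Glo luminescence read. Normalized to DMSO avg (x100); 4-parameter logistic fit.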
# K-Ras G13C = K-Ras G13C (Homo sapiens (Human), UniProt P01116+P62937, G13C); test: Ras-Raf (BRAF RBD) disruption / FRET / MOA assay, KRAS G13C; type: biochemical; details: KRAS G13C; Ras-Raf disruption/FRET/MOA assay; read-out: IC50* KRAS G13C FRET data
# Summary of the method: (§1)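 A 10-point, 3-fold dilution series topping at 30 μM final was incubated 3 h at 25° C with the Ras/cyclophilin A/BRAF RBD mixture.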
# NRAS G12C = NRAS G12C (Homo sapiens (Human), UniProt P01111+P62937, G12C); test: Ras-Raf (BRAF RBD) disruption / FRET / MOA assay, NRAS G12C; type: biochemical
# Summary of the method: as §1
# [2] = NCI-H358, 5-day treatment, read-out: Additional H358 Cell Viability assay data (K-Ras G12C, IC50)
# [3] = read-out: IC50* NRAS G12C FRET data
# NRAS G12C, sequence (P01111 whole entry G12C): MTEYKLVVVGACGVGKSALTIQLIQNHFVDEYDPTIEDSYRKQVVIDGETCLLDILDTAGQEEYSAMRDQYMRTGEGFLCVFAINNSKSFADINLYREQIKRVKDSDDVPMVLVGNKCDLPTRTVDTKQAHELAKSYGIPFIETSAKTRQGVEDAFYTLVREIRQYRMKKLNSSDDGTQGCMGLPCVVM
# NRAS G12C, sequence (P62937 whole entry): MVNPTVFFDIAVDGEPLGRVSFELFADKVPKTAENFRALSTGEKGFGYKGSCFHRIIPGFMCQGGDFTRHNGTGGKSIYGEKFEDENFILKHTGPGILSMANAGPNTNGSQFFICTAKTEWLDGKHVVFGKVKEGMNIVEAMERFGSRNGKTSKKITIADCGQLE
# K-Ras G13C, sequence (P01116-2 other isoform, or with tags, fused parts or gaps G13C): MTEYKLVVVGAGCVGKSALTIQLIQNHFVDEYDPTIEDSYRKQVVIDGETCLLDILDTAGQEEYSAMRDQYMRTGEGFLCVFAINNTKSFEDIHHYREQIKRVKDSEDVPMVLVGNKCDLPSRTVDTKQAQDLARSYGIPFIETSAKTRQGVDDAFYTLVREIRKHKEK
# K-Ras G13C, sequence (P62937 whole entry): as the sequence (P62937 whole entry) above
Compound,EC50 [1] [µM],IC50 (NCI-H358 (K-Ras G12C); [2]) [µM],IC50 (K-Ras G13C) [µM],IC50 (NRAS G12C; [3]) [µM],"IC50 (NCI-H358 (K-Ras G12C); read-out: Additional H358 Cell Viability assay data (K-Ras G12C, IC50, uM), NCI-H358, 5-day treatment) [µM]",IC50 (NRAS G12C; IC50* NRAS G12C FRET data) [µM]
"C=CC(=O)N1CC[C@H](C(=O)N(C)[C@H](C(=O)N[C@H]2CC3=NC=C(O3)c3ccc4c(c3)c(c(-c3cccnc3[C@H](C)OC)n4CC)CC(C)(C)COC(=O)[C@@H]3CCCN(N3)C2=O)C(C)C)C1 (atropisomer, axis not shown) [Example A278]",< 5,0.1 to 1,1 to 10,0.1 to 1,–,–
"CCn1c(-c2cccnc2[C@H](C)OC)c2c3cc(ccc31)-c1cccc(c1)C[C@H](NC(=O)[C@H](C(C)C)N(C)C(=O)[C@H]1CCN(C(=O)C#CC(C)(C)N(C)C)C1)C(=O)N1CCC[C@H](N1)C(=O)OCC(C)(C)C2 (atropisomer, axis not shown) [Example A290]",< 5,< 0.01,1 to 10,< 0.01,–,–
"C=CS(=O)(=O)N1CCC2(CCN([C@H](C(=O)N[C@H]3Cc4cc(O)cc(c4)-c4ccc5c(c4)c(c(-c4cccnc4[C@H](C)OC)n5CC)CC(C)(C)COC(=O)[C@@H]4CCCN(N4)C3=O)C(C)C)C2=O)CC1 (atropisomer, axis not shown) [Example A299]",< 5,< 0.01,< 0.01,< 0.01,–,–
"CO[C@@H](C)c1ncccc1-c1c2c3cc(ccc3n1CC(F)(F)F)-c1csc(n1)C[C@H](NC(=O)[C@@H](COC1CN(C(=O)C#CC(C)(C)N(C)C)C1)C(C)C)C(=O)N1CCC[C@H](N1)C(=O)OCC(C)(C)C2 (atropisomer, axis not shown) [Example A343]",< 5,< 0.01,1 to 10,< 0.01,–,–
"C=CC(=O)N1CC[C@H](C(=O)N(C)[C@H](C(=O)N[C@H]2Cc3cc(cc(C(F)F)c3)-c3ccc4c(c3)c(c(-c3cc(N5CCN(C)CC5)cnc3[C@H](C)OC)n4CC(F)(F)F)CC(C)(C)COC(=O)[C@@H]3CCCN(N3)C2=O)C(C)C)C1 (atropisomer, axis not shown) [Example A357]",< 5,< 0.01,0.1 to 1,0.1 to 1,–,–
"CO[C@@H](C)c1ncccc1-c1c2c3cc(ccc3n1CC(F)(F)F)-c1cccc(c1)C[C@H](NC(=O)[C@@H](COC1CN(C(=O)C#CC(C)(C)N(C)C)C1)C(C)C)C(=O)N1CCC[C@H](N1)C(=O)OCC(C)(C)C2 (atropisomer, axis not shown) [Example A376]",< 5,< 0.01,1 to 10,< 0.01,–,–
"C=CC(=O)N1C[C@H](C)N(C(=O)N(C)[C@H](C(=O)N[C@H]2Cc3nc(cs3)-c3ccc4c(c3)c(c(-c3cccnc3[C@H](C)OC)n4CC)CC(C)(C)COC(=O)[C@@H]3CCCN(N3)C2=O)C(C)C)C[C@@H]1C (atropisomer, axis not shown) [Example A385]",< 5,< 0.01,0.01 to 0.1,0.01 to 0.1,–,–
"C=CC(=O)N1CCC12CN(C(=O)N(C)[C@H](C(=O)N[C@H]1Cc3nc(cs3)-c3ccc4c(c3)c(c(-c3cccnc3[C@H](C)OC)n4CC)CC(C)(C)COC(=O)[C@@H]3CCCN(N3)C1=O)C(C)C)C2 (atropisomer, axis not shown) [Example A393]",< 5,0.01 to 0.1,0.1 to 1,0.1 to 1,–,–
"CCn1c(-c2cccnc2[C@H](C)OC)c2c3cc(ccc31)-c1cc(F)cc(c1)C[C@H](NC(=O)[C@@H](COC1CN(C(=O)C#CC(C)(C)N(C)C)C1)C(C)C)C(=O)N1CCC[C@H](N1)C(=O)OCC(C)(C)C2 (atropisomer, axis not shown) [Example A403]",< 5,< 0.01,1 to 10,0.01 to 0.1,–,–
"C=CC(=O)N1CC2(CCN2C(=O)N(C)[C@H](C(=O)N[C@H]2Cc3nc(cs3)-c3ccc4c(c3)c(c(-c3cccnc3[C@H](C)OC)n4CC)CC(C)(C)COC(=O)[C@@H]3CCCN(N3)C2=O)C(C)C)C1 (atropisomer, axis not shown) [Example A407]",< 5,< 0.01,0.1 to 1,< 0.01,–,–
"C=CC(=O)N1CC[C@H](C(=O)N(C)[C@H](C(=O)N[C@H]2CC3=NN=C(O3)c3ccc4c(c3)c(c(-c3cccnc3[C@H](C)OC)n4CC)CC(C)(C)COC(=O)[C@@H]3CCCN(N3)C2=O)C(C)C)C1 (atropisomer, axis not shown) [Example A447]",< 5,0.1 to 1,1 to 10,0.1 to 1,–,–
"C=CC(=O)Nc1ncc(C(=O)N(C)[C@H](C(=O)N[C@H]2Cc3cccc(c3)-c3ccc4c(c3)c(c(-c3cccnc3[C@H](C)OC)n4CC)CC(C)(C)COC(=O)[C@@H]3CCCN(N3)C2=O)C(C)C)n1C (atropisomer, axis not shown) [Example A474]",< 5,< 0.01,< 0.01,< 0.01,–,–
"C=CC(=O)N1CC[C@H](C(=O)N2CC[C@H](C)[C@H]2C(=O)N[C@H]2Cc3cccc(c3)-c3ccc4c(c3)c(c(-c3cccnc3[C@H](C)OC)n4CC)CC(C)(C)COC(=O)[C@@H]3CCCN(N3)C2=O)C1 (atropisomer, axis not shown) [Example A494]",< 5,0.1 to 1,1 to 10,0.1 to 1,–,–
"C=CC(=O)N1CC[C@H](C(=O)N2CCCCC[C@H]2C(=O)N[C@H]2Cc3cccc(c3)-c3ccc4c(c3)c(c(-c3cccnc3[C@H](C)OC)n4CC)CC(C)(C)COC(=O)[C@@H]3CCCN(N3)C2=O)C1 (atropisomer, axis not shown) [Example A496]",< 5,0.1 to 1,1 to 10,1 to 10,–,–
"CCn1c(-c2cccnc2[C@H](C)OC)c2c3cc(ccc31)-c1cccc(c1)C[C@H](NC(=O)[C@H](C(C)C)N1CC[C@]3(CCN(C(=O)C#CC(C)(C)N(C)C)C3)C1=O)C(=O)N1CCC[C@H](N1)C(=O)OCC(C)(C)C2 (atropisomer, axis not shown) [Example A534, (2S)-2-((S)-7-(4-(dimethylamino)-4-methylpent-2-ynoyl)-1-oxo-2,7-diazaspiro[4.4]nonan-2-yl)-N-((6^3S,4S)-1^1-ethyl-1^2-(2-((S)-1-methoxyethyl)pyridin-3-yl)-10,10-dimethyl-5,7-dioxo-6^1,6^2,6^3,6^4,6^5,6^6-hexahydro-1^1H-8-oxa-1(5,3)-indola-6(1,3)-pyridazina-2(1,3)-benzenacycloundecaphane-4-yl)-3-methylbutanamide]",< 5,< 0.01,0.1 to 1,< 0.01,–,–
"C=CC(=O)N1CC[C@H]2[C@@H]1CN2C(=O)N(C)[C@H](C(=O)N[C@H]1Cc2nc(cs2)-c2ccc3c(c2)c(c(-c2cccnc2[C@H](C)OC)n3CC)CC(C)(C)COC(=O)[C@@H]2CCCN(N2)C1=O)C(C)C (atropisomer, axis not shown) [Example A547]",< 5,0.1 to 1,0.1 to 1,0.1 to 1,–,–
"CCn1c(-c2cccnc2[C@H](C)OC)c2c3cc(ccc31)-c1cccc(c1)C[C@H](NC(=O)[C@H](C(C)C)N1CC[C@@]3(CCN(C(=O)C#C[C@@H]4COCCN4C)C3)C1=O)C(=O)N1CCC[C@H](N1)C(=O)OCC(C)(C)C2 (atropisomer, axis not shown) [Example A549]",< 5,–,0.1 to 1,–,< 0.01,0.01 to 0.1
"CCn1c(-c2cccnc2[C@H](C)OC)c2c3cc(ccc31)-c1cccc(c1)C[C@H](NC(=O)[C@H](C(C)C)N1CC[C@]3(CCN(C(=O)C#C[C@@]4(N(C)C)CCOC4)C3)C1=O)C(=O)N1CCC[C@H](N1)C(=O)OCC(C)(C)C2 (atropisomer, axis not shown) [Example A560]",< 5,< 0.01,0.1 to 1,0.01 to 0.1,–,–
"C=CC(=O)N1C[C@@H]2CN(C(=O)N(C)[C@H](C(=O)N[C@H]3Cc4nc(cs4)-c4ccc5c(c4)c(c(-c4cccnc4[C@H](C)OC)n5CC)CC(C)(C)COC(=O)[C@@H]4CCCN(N4)C3=O)C(C)C)[C@@H]2C1 (atropisomer, axis not shown) [Example A561]",< 5,0.1 to 1,0.1 to 1,0.1 to 1,–,–
